Measurements published in article PMC5218480 (PLoS ONE, 2017).

Test system: MV-4-11 cells
Assay: Gene expression microarray analysis (Affymetrix PrimeView) and GSEA
Assay type: cell-based, human
Parameters: RFU PODN (11730768_x_at) / Fold change /veh PODN (11730768_x_at) / RFU LINC00158 (11744669_a_at) / Fold change /veh LINC00158 (11744669_a_at) / RFU DUSP10 (11751237_a_at) / Fold change /veh DUSP10 (11751237_a_at) / RFU ID3 (11757404_x_at) / Fold change /veh ID3 (11757404_x_at) / RFU PLEKHG5 (11737974_s_at) / Fold change /veh PLEKHG5 (11737974_s_at) / RFU LRRC4B (11730491_at) / Fold change /veh LRRC4B (11730491_at) / RFU GIMAP4 (11747438_a_at) / Fold change /veh GIMAP4 (11747438_a_at) / RFU KRT8 (11758183_x_at) / Fold change /veh KRT8 (11758183_x_at) / RFU CNN1 (11734310_a_at) / Fold change /veh CNN1 (11734310_a_at) / RFU VPS37D (11726825_at) / Fold change /veh VPS37D (11726825_at) / RFU C10orf10 (11716522_x_at) / Fold change /veh C10orf10 (11716522_x_at) / RFU KIR2DL2 /// KIR2DL4 /// KIR2DL5A /// KIR2DL5B /// KIR2DS1 /// KIR2DS2 /// KIR2DS3 /// KIR2DS4 /// KIR3DL3 /// KIR3DL3 /// KIR3DS1 (11738374_at) / Fold change /veh KIR2DL2 /// KIR2DL4 /// KIR2DL5A /// KIR2DL5B /// KIR2DS1 /// KIR2DS2 /// KIR2DS3 /// KIR2DS4 /// KIR3DL3 /// KIR3DL3 /// KIR3DS1 (11738374_at) / RFU C1QL1 (11718748_at) / Fold change /veh C1QL1 (11718748_at) / RFU TMPRSS4 (11747572_a_at) / Fold change /veh TMPRSS4 (11747572_a_at) / RFU HAMP (11756126_x_at) / Fold change /veh HAMP (11756126_x_at) / RFU RNFT2 (11725882_a_at) / Fold change /veh RNFT2 (11725882_a_at) / RFU NR4A2 (11747474_a_at) / Fold change /veh NR4A2 (11747474_a_at) / RFU ABCC12 (11746883_a_at) / Fold change /veh ABCC12 (11746883_a_at) / RFU TMEM136 (11760407_x_at) / Fold change /veh TMEM136 (11760407_x_at) / RFU CLDN22 /// WWC2 (11732394_at) / Fold change /veh CLDN22 /// WWC2 (11732394_at) / RFU HLA-DPB1 (11760878_x_at) / Fold change /veh HLA-DPB1 (11760878_x_at) / RFU SPINT1 (11716480_a_at) / Fold change /veh SPINT1 (11716480_a_at) / RFU GAP43 (11754022_s_at) / Fold change /veh GAP43 (11754022_s_at) / RFU A4GNT (11735810_at) / Fold change /veh A4GNT (11735810_at) / RFU PRB3 (11715151_x_at) / Fold change /veh PRB3 (11715151_x_at) / RFU TUBB4B (11761932_at) / Fold change /veh TUBB4B (11761932_at) / RFU CAPN14 (11732068_a_at) / Fold change /veh CAPN14 (11732068_a_at) / RFU TMCC2 (11721928_a_at) / Fold change /veh TMCC2 (11721928_a_at) / RFU IRGQ (11745062_a_at) / Fold change /veh IRGQ (11745062_a_at) / RFU FAM174B (11720279_a_at) / Fold change /veh FAM174B (11720279_a_at) / RFU TMPRSS4 (11748680_a_at) / Fold change /veh TMPRSS4 (11748680_a_at) / RFU FAM212B (11763350_a_at) / Fold change /veh FAM212B (11763350_a_at) / RFU PLEKHG5 (11743358_a_at) / Fold change /veh PLEKHG5 (11743358_a_at) / RFU ZSCAN30 (11745921_a_at) / Fold change /veh ZSCAN30 (11745921_a_at) / RFU CMKLR1 (11741424_a_at) / Fold change /veh CMKLR1 (11741424_a_at) / RFU LOC101060620 /// MAPK8IP1 (11723275_at) / Fold change /veh LOC101060620 /// MAPK8IP1 (11723275_at) / RFU SPTSSB (11747773_x_at) / Fold change /veh SPTSSB (11747773_x_at) / RFU PRSS12 (11739890_at) / Fold change /veh PRSS12 (11739890_at) / RFU BIN1 (11741810_x_at) / Fold change /veh BIN1 (11741810_x_at) / RFU WNT11 (11732464_a_at) / Fold change /veh WNT11 (11732464_a_at) / RFU C10orf10 (11716521_a_at) / Fold change /veh C10orf10 (11716521_a_at) / RFU C5orf56 (11738089_at) / Fold change /veh C5orf56 (11738089_at) / RFU CYB561 (11721691_x_at) / Fold change /veh CYB561 (11721691_x_at) / RFU ANKRD19P (11752326_a_at) / Fold change /veh ANKRD19P (11752326_a_at) / RFU OR2T12 /// OR2T33 /// OR2T8 (11738714_s_at) / Fold change /veh OR2T12 /// OR2T33 /// OR2T8 (11738714_s_at) / RFU VCAN (11748164_a_at) / Fold change /veh VCAN (11748164_a_at) / RFU JSRP1 (11732532_at) / Fold change /veh JSRP1 (11732532_at) / RFU KRTAP10-11 (11738290_x_at) / Fold change /veh KRTAP10-11 (11738290_x_at) / RFU MYO3A (11730013_a_at) / Fold change /veh MYO3A (11730013_a_at) / RFU EBF3 (11725865_a_at) / Fold change /veh EBF3 (11725865_a_at) / RFU CAMK2N1 (11719241_x_at) / Fold change /veh CAMK2N1 (11719241_x_at) / RFU C5orf56 (11738088_a_at) / Fold change /veh C5orf56 (11738088_a_at) / RFU OLFML3 (11715873_a_at) / Fold change /veh OLFML3 (11715873_a_at) / RFU LOC100653217 /// NTM (11731650_a_at) / Fold change /veh LOC100653217 /// NTM (11731650_a_at) / RFU MAPK11 (11762145_a_at) / Fold change /veh MAPK11 (11762145_a_at) / RFU FIZ1 (11724087_x_at) / Fold change /veh FIZ1 (11724087_x_at) / RFU OASL (11726364_x_at) / Fold change /veh OASL (11726364_x_at) / RFU SOX15 (11748057_x_at) / Fold change /veh SOX15 (11748057_x_at) / RFU CD79A (11719716_a_at) / Fold change /veh CD79A (11719716_a_at) / RFU HIST1H1D (11736915_at) / Fold change /veh HIST1H1D (11736915_at) / RFU CASKIN2 (11723855_a_at) / Fold change /veh CASKIN2 (11723855_a_at) / RFU LOC730098 (11760151_x_at) / Fold change /veh LOC730098 (11760151_x_at) / RFU OR4N2 (11742367_at) / Fold change /veh OR4N2 (11742367_at) / RFU PRRT2 (11749266_a_at) / Fold change /veh PRRT2 (11749266_a_at) / RFU SNX32 (11753110_a_at) / Fold change /veh SNX32 (11753110_a_at) / RFU CDHR5 (11726645_a_at) / Fold change /veh CDHR5 (11726645_a_at) / RFU RCAN1 (11760418_a_at) / Fold change /veh RCAN1 (11760418_a_at) / RFU FAM167A (11723789_a_at) / Fold change /veh FAM167A (11723789_a_at) / RFU FAM26E (11764081_at) / Fold change /veh FAM26E (11764081_at) / RFU ISYNA1 (11749810_s_at) / Fold change /veh ISYNA1 (11749810_s_at) / RFU ACY1 (11761880_at) / Fold change /veh ACY1 (11761880_at) / RFU 11764098_at / Fold change /veh 11764098_at / RFU SAMD14 (11745864_x_at) / Fold change /veh SAMD14 (11745864_x_at) / RFU NPB (11741838_a_at) / Fold change /veh NPB (11741838_a_at) / RFU TMPRSS6 (11731388_a_at) / Fold change /veh TMPRSS6 (11731388_a_at) / RFU KRTAP10-2 (11738614_at) / Fold change /veh KRTAP10-2 (11738614_at) / RFU ARHGAP8 /// PRR5-ARHGAP8 (11727945_x_at) / Fold change /veh ARHGAP8 /// PRR5-ARHGAP8 (11727945_x_at) / RFU KRTAP5-7 /// NADSYN1 (11734609_at) / Fold change /veh KRTAP5-7 /// NADSYN1 (11734609_at) / RFU RASL12 (11751679_a_at) / Fold change /veh RASL12 (11751679_a_at) / RFU CDKN2B (11736163_a_at) / Fold change /veh CDKN2B (11736163_a_at) / RFU PRF1 (11729649_at) / Fold change /veh PRF1 (11729649_at) / RFU, ZNF638 /// ZNF638-IT1 / Fold change vs veh, ZNF638 /// ZNF638-IT1 / RFU, PANK3 / Fold change vs veh, PANK3 / RFU, SH3YL1 / Fold change vs veh, SH3YL1 / RFU, ZEB2 / Fold change vs veh, ZEB2 / RFU, NRIP1 / Fold change vs veh, NRIP1 / RFU, PTTG1IP / Fold change vs veh, PTTG1IP / RFU, CAPN2 / Fold change vs veh, CAPN2 / RFU, MED14 / Fold change vs veh, MED14 / RFU, SNORA58 / Fold change vs veh, SNORA58 / RFU, C1orf63 / Fold change vs veh, C1orf63 / RFU, LRRFIP1 / Fold change vs veh, LRRFIP1 / RFU, NDUFAF7 / Fold change vs veh, NDUFAF7 / RFU, SLC12A2 / Fold change vs veh, SLC12A2 / RFU, IBTK / Fold change vs veh, IBTK / RFU, ESF1 / Fold change vs veh, ESF1 / Fold change vs veh, TMEM50B / RFU, TAOK1 / Fold change vs veh, TAOK1 / RFU, ACBD3 / Fold change vs veh, ACBD3 / RFU, TMA16 / Fold change vs veh, TMA16 / RFU, RWDD3 / Fold change vs veh, RWDD3 / RFU, BCAT1 / Fold change vs veh, BCAT1 / RFU, EDEM3 / Fold change vs veh, EDEM3 / RFU, TMEM33 / Fold change vs veh, TMEM33 / RFU, WDR75 / Fold change vs veh, WDR75 / RFU, AHCTF1 / Fold change vs veh, AHCTF1 / RFU, TFRC / Fold change vs veh, TFRC / RFU, ZDHHC17 / Fold change vs veh, ZDHHC17 / RFU, NOM1 / Fold change vs veh, NOM1 / RFU, ARL8B / Fold change vs veh, ARL8B / RFU, ZBTB11 / Fold change vs veh, ZBTB11 / RFU, TAMM41 / Fold change vs veh, TAMM41 / RFU, KIAA1704 /// LOC100996395 / Fold change vs veh, KIAA1704 /// LOC100996395 / RFU, ING1 / Fold change vs veh, ING1 / RFU, TRMT61B / Fold change vs veh, TRMT61B / RFU, FUBP3 / Fold change vs veh, FUBP3 / RFU, TP53 / Fold change vs veh, TP53 / RFU, TNKS2 / Fold change vs veh, TNKS2 / RFU, ZFP14 / Fold change vs veh, ZFP14 / RFU, ACTR2 / Fold change vs veh, ACTR2 / RFU, PPP3R1 / Fold change vs veh, PPP3R1 / RFU, PIK3R1 / Fold change vs veh, PIK3R1 / RFU, HNRNPA1 / Fold change vs veh, HNRNPA1 / RFU, RNF170 / Fold change vs veh, RNF170 / RFU, ZNF28 / Fold change vs veh, ZNF28 / RFU, RNGTT / Fold change vs veh, RNGTT / RFU, OGT / Fold change vs veh, OGT / RFU, BRD1 / Fold change vs veh, BRD1 / RFU, MARS / Fold change vs veh, MARS / RFU, ZNF655 / Fold change vs veh, ZNF655 / RFU, FAHD1 / Fold change vs veh, FAHD1 / RFU, BDP1 / Fold change vs veh, BDP1 / RFU, LRRCC1 / Fold change vs veh, LRRCC1 / RFU, ARID1A / Fold change vs veh, ARID1A / RFU, ZNF146 / Fold change vs veh, ZNF146 / RFU, ZNF330 / Fold change vs veh, ZNF330 / RFU, GPN3 / Fold change vs veh, GPN3 / RFU, C9orf123 / Fold change vs veh, C9orf123 / RFU, N4BP2L2 / Fold change vs veh, N4BP2L2 / RFU, ARFIP1 / Fold change vs veh, ARFIP1 / RFU, FAM179B / Fold change vs veh, FAM179B / RFU, BCL10 / Fold change vs veh, BCL10 / RFU, UHRF1BP1L / Fold change vs veh, UHRF1BP1L / RFU, BET1 / Fold change vs veh, BET1 / RFU, CNOT2 / Fold change vs veh, CNOT2 / RFU, ZNF268 / Fold change vs veh, ZNF268 / Fold change vs veh, ZNF507 / RFU, DGCR2 / Fold change vs veh, DGCR2 / RFU, WDSUB1 / Fold change vs veh, WDSUB1 / Fold change vs veh, HSP90B1 /// MIR3652 / RFU, ADSS / Fold change vs veh, ADSS / RFU, GK / Fold change vs veh, GK / RFU, ZNF148 / Fold change vs veh, ZNF148 / RFU, TAF9 / Fold change vs veh, TAF9 / RFU, SLC1A5 / Fold change vs veh, SLC1A5 / RFU, SLMO2 / Fold change vs veh, SLMO2 / RFU, ABCC4 / Fold change vs veh, ABCC4 / RFU, LOC101060439 /// RAP1B / Fold change vs veh, LOC101060439 /// RAP1B / RFU, RFX7 / Fold change vs veh, RFX7 / RFU, GTPBP10 / Fold change vs veh, GTPBP10 / RFU, CNEP1R1 / Fold change vs veh, CNEP1R1 / RFU, BIVM-ERCC5 /// ERCC5 / Fold change vs veh, BIVM-ERCC5 /// ERCC5 / RFU, ILF3 / Fold change vs veh, ILF3 / RFU 11762660_at / Fold change /veh 11762660_at / RFU VCAN (11757783_s_at) / Fold change /veh VCAN (11757783_s_at) / RFU DDX43 (11728927_at) / Fold change /veh DDX43 (11728927_at) / RFU KRT8 (11758188_x_at) / Fold change /veh KRT8 (11758188_x_at) / RFU NKD1 (11759106_at) / Fold change /veh NKD1 (11759106_at) / RFU SRD5A1 (11742802_a_at) / Fold change /veh SRD5A1 (11742802_a_at) / RFU TPSAB1 /// TPSB2 (11721975_s_at) / Fold change /veh TPSAB1 /// TPSB2 (11721975_s_at) / RFU GSTM3 (11746129_a_at) / Fold change /veh GSTM3 (11746129_a_at) / RFU IL23R (11737362_x_at) / Fold change /veh IL23R (11737362_x_at) / RFU TMEM51 (11727254_a_at) / Fold change /veh TMEM51 (11727254_a_at) / RFU PIWIL2 (11732686_x_at) / Fold change /veh PIWIL2 (11732686_x_at) / RFU ORM1 (11744905_x_at) / Fold change /veh ORM1 (11744905_x_at) / RFU CCDC152 (11743942_at) / Fold change /veh CCDC152 (11743942_at) / RFU ECM1 (11717891_a_at) / Fold change /veh ECM1 (11717891_a_at) / RFU IL23R (11748794_a_at) / Fold change /veh IL23R (11748794_a_at) / RFU TNFAIP8L3 (11732012_x_at) / Fold change /veh TNFAIP8L3 (11732012_x_at) / RFU MBOAT4 (11741988_at) / Fold change /veh MBOAT4 (11741988_at) / RFU 11764193_at / Fold change /veh 11764193_at / RFU TMEM53 (11763286_at) / Fold change /veh TMEM53 (11763286_at) / RFU MAGEB2 (11727129_at) / Fold change /veh MAGEB2 (11727129_at) / RFU TMEM200A (11744735_a_at) / Fold change /veh TMEM200A (11744735_a_at) / RFU CCDC152 (11751479_a_at) / Fold change /veh CCDC152 (11751479_a_at) / RFU FAM211A (11726209_a_at) / Fold change /veh FAM211A (11726209_a_at) / RFU RGS16 (11746705_a_at) / Fold change /veh RGS16 (11746705_a_at) / RFU VCAN (11755009_s_at) / Fold change /veh VCAN (11755009_s_at) / RFU RHOB (11743442_s_at) / Fold change /veh RHOB (11743442_s_at) / RFU RGS16 (11720943_a_at) / Fold change /veh RGS16 (11720943_a_at) / RFU RGS16 (11720944_at) / Fold change /veh RGS16 (11720944_at) / RFU, VPS4B / Fold change vs veh, VPS4B / RFU, CREB1 / Fold change vs veh, CREB1 / RFU, DNAJC13 / Fold change vs veh, DNAJC13 / RFU, GNAQ / Fold change vs veh, GNAQ / RFU, CDK5R1 / Fold change vs veh, CDK5R1 / RFU, ZRANB3 / Fold change vs veh, ZRANB3 / RFU, CUL4A / Fold change vs veh, CUL4A / RFU, CCNY / Fold change vs veh, CCNY / RFU, UFL1 / Fold change vs veh, UFL1 / RFU, COG3 / Fold change vs veh, COG3 / RFU, DIAPH2 / Fold change vs veh, DIAPH2 / RFU, SKA2 / Fold change vs veh, SKA2 / RFU, AFF3 / Fold change vs veh, AFF3 / RFU, LMF1 / Fold change vs veh, LMF1 / RFU, IPO11 / Fold change vs veh, IPO11 / RFU, DFFB / Fold change vs veh, DFFB / RFU, FOXP1 / Fold change vs veh, FOXP1 / RFU, CARD8 / Fold change vs veh, CARD8 / RFU, STRN3 / Fold change vs veh, STRN3 / RFU, ADK / Fold change vs veh, ADK / RFU, RASSF2 / Fold change vs veh, RASSF2 / RFU, WIPF1 / Fold change vs veh, WIPF1 / RFU, LARP1B / Fold change vs veh, LARP1B / RFU, RASA1 / Fold change vs veh, RASA1 / RFU, RB1 / Fold change vs veh, RB1 / RFU, PPFIA1 / Fold change vs veh, PPFIA1 / RFU, MAT2A / Fold change vs veh, MAT2A / RFU, CCT5 / Fold change vs veh, CCT5 / RFU, WDR92 / Fold change vs veh, WDR92 / RFU, CUX1 / Fold change vs veh, CUX1 / RFU, TTC7A / Fold change vs veh, TTC7A / RFU, TMEM135 / Fold change vs veh, TMEM135 / RFU, DEPTOR / Fold change vs veh, DEPTOR / RFU, CPM / Fold change vs veh, CPM / RFU, DNAJB6 / Fold change vs veh, DNAJB6 / RFU, CACNA2D3 / Fold change vs veh, CACNA2D3 / RFU, DTX4 / Fold change vs veh, DTX4 / RFU, TFCP2 / Fold change vs veh, TFCP2 / RFU, GMCL1 /// GMCL1P1 / Fold change vs veh, GMCL1 /// GMCL1P1 / RFU, AEBP2 / Fold change vs veh, AEBP2 / RFU, SNHG1 /// SNORD22 /// SNORD25 /// SNORD26 /// SNORD27 /// SNORD28 /// SNORD29 /// SNORD31 / Fold change vs veh, SNHG1 /// SNORD22 /// SNORD25 /// SNORD26 /// SNORD27 /// SNORD28 /// SNORD29 /// SNORD31 / Fold change (Aza/veh), C12orf56 (ProbeSet 11735607_a_at) / Fold change (ACY-1035/veh), C12orf56 (ProbeSet 11735607_a_at) / Fold change (Aza/veh), FGFR1OP (ProbeSet 11751329_s_at) / Fold change (ACY-1035/veh), FGFR1OP (ProbeSet 11751329_s_at) / Fold change (Aza/veh), VPS36 (ProbeSet 11739960_a_at) / Fold change (ACY-1035/veh), VPS36 (ProbeSet 11739960_a_at) / RFU SYPL1 (11715823_x_at) / Fold change /veh SYPL1 (11715823_x_at) / RFU IGFBP7 (11715501_s_at) / Fold change /veh IGFBP7 (11715501_s_at) / RFU REEP3 (11722064_at) / Fold change /veh REEP3 (11722064_at) / RFU IGLL1 (11728026_x_at) / Fold change /veh IGLL1 (11728026_x_at): dose or concentration left out as unconfirmed
Conditions: MV-4-11 cells, 48 hours

Nc1ncn([C@@H]2O[C@H](CO)[C@@H](O)[C@H]2O)c(=O)n1 [azacitidine]
RFU CASKIN2 (11723855_a_at): 31.47 RFU
